In brackets after ≈: the same amount, converted by molar mass.
Experiments:
Assay type in all cases: functional
Escherichia coli [1] = experiment: Bactericidal activity against Escherichia coli ATCC 25922 after 18 hrs by microbroth dilution assay; conditions: ATCC 25922, 18 h
Staphylococcus aureus [2] = experiment: Bactericidal activity against Staphylococcus aureus ATCC 25923 after 18 hrs by microbroth dilution assay; conditions: ATCC 25923, 18 h
Staphylococcus aureus [3] = experiment: Antibacterial activity against Staphylococcus aureus ATCC 25923 after 18 hrs by microbroth dilution assay
Escherichia coli [4] = experiment: Antibacterial activity against Escherichia coli ATCC 25922 after 18 hrs by microbroth dilution assay
[5] = Staphylococcus aureus, ATCC 25923, 18 h, read-out: MIC
[6] = Escherichia coli, ATCC 25922, 18 h, read-out: MIC

Structure (SMILES)	MIC (Staphylococcus aureus [3]; [5]) [µg/mL]	MIC (Escherichia coli [4]; [6]) [µg/mL]	MIC (Staphylococcus aureus [3]) [uL/ml]	MIC (Escherichia coli [4]) [uL/ml]	MBC (Escherichia coli [1]) [µg/mL]	MBC (Staphylococcus aureus [2]) [µg/mL]
CCN(CC)[c+]1sc2c(s1)C(c1ccccc1)Oc1ccc(F)cc1-2.F[B-](F)(F)F (stereo not drawn)	7.81	62.5			125	15.6
CCN(CC)[c+]1sc2c(s1)C(c1ccc(Cl)cc1)Oc1ccc(F)cc1-2.F[B-](F)(F)F (stereo not drawn)	3.9	15.6			15.6	7.81
CCN(CC)[c+]1sc2c(s1)C(c1ccc(I)cc1)Oc1ccc(F)cc1-2.F[B-](F)(F)F (stereo not drawn)	1.95	3.9			7.81	0.97
CCN(CC)[c+]1sc2c(s1)C(c1ccc(F)cc1)Oc1ccc(F)cc1-2.F[B-](F)(F)F (stereo not drawn)	7.81	15.6			125	3.9
CCN(CC)[c+]1sc2c(s1)C(c1ccc(I)cc1)Oc1ccc(Cl)cc1-2.F[B-](F)(F)F (stereo not drawn)	0.24	1.95			0.97	0.48
CCN(CC)[c+]1sc2c(s1)C(c1ccc(Cl)cc1)Oc1ccc(Cl)cc1-2.F[B-](F)(F)F (stereo not drawn)	0.24	3.9			3.9	0.48
CCN(CC)[c+]1sc2c(s1)C(c1ccc(F)cc1)Oc1ccc(Cl)cc1-2.F[B-](F)(F)F (stereo not drawn)	1.95	15.6			15.6	3.9
CC1(C)S[C@@H]2[C@H](NC(=O)[C@H](N)c3ccccc3)C(=O)N2[C@H]1C(=O)O [AMPICILLIN]	7.81 (≈ 22.4 µM)	7.81 (≈ 22.4 µM)				
C[S+](C)[O-] [DIMETHYL SULFOXIDE]			250	125		
NC[C@H]1O[C@H](O[C@H]2[C@H](O)[C@@H](O[C@H]3O[C@H](CO)[C@@H](O)[C@H](N)[C@H]3O)[C@H](N)C[C@@H]2N)[C@H](O)[C@@H](O)[C@@H]1O [KANAMYCIN]	1.95 (≈ 4.02 µM)	7.81 (≈ 16.1 µM)			7.81 (≈ 16.1 µM)	1.95 (≈ 4.02 µM)

The next lines start with results.

MIC (Staphylococcus aureus [3]; [5]) [µg/mL]	MIC (Escherichia coli [4]; [6]) [µg/mL]	MIC (Staphylococcus aureus [3]) [uL/ml]	MIC (Escherichia coli [4]) [uL/ml]	Structure (SMILES)	MBC (Escherichia coli [1]) [µg/mL]	MBC (Staphylococcus aureus [2]) [µg/mL]
3.9	125			CCN(CC)[c+]1sc2c(s1)C(c1ccc(Cl)cc1)Oc1ccccc1-2.F[B-](F)(F)F (stereo not drawn)	125	7.81
1.95	62.5			CCN(CC)[c+]1sc2c(s1)C(c1ccc(Br)cc1)Oc1ccccc1-2.F[B-](F)(F)F (stereo not drawn)	125	1.95
62.5	62.5			CCN(CC)[c+]1sc2c(s1)C(c1ccccc1)Oc1ccccc1-2.F[B-](F)(F)F (stereo not drawn)	250	250
0.24	3.9			CCN(CC)[c+]1sc2c(s1)C(c1ccc(Br)cc1)Oc1ccc(Cl)cc1-2.F[B-](F)(F)F (stereo not drawn)	1.95	3.9
0.97	31.2			CCN(CC)[c+]1sc2c(s1)C(c1ccc(I)cc1)Oc1ccccc1-2.F[B-](F)(F)F (stereo not drawn)	62.5	1.95
1.95	7.81			CCN(CC)[c+]1sc2c(s1)C(c1ccc(Br)cc1)Oc1ccc(F)cc1-2.F[B-](F)(F)F (stereo not drawn)	15.6	7.81
7.81	125			CCN(CC)[c+]1sc2c(s1)C(c1ccc(F)cc1)Oc1ccccc1-2.F[B-](F)(F)F (stereo not drawn)	125	7.81
3.9	62.5			CCN(CC)[c+]1sc2c(s1)C(c1ccccc1)Oc1ccc(Cl)cc1-2.F[B-](F)(F)F (stereo not drawn)	125	3.9
